Values quoted from earlier work, collected in paper PMC12694011, “Update and ADMET Profile of the Latin American Natural Product Database: LANaPDB” (Molecular Informatics, 2025).

Assays:
[1] = set-up: method as in PMID 19947605; conditions: amphoteric drugs

paracellular transport (in words) [1] | Structure (SMILES) | hERG channel blocking (in words) (hERG channel)
undergo extensive paracellular transport | CN1C(C(=O)Nc2ccccn2)=C(O)c2ccccc2S1(=O)=O [piroxicam] | 
 | OCCN1CCN(CCCN2c3ccccc3Sc3ccc(Cl)cc32)CC1 [perphenazine] | potent hERG channel blockers
undergo extensive paracellular transport | Nc1nc(O)c2ncn(COC(CO)CO)c2n1 [ganciclovir] | 
undergo extensive paracellular transport | CC1(C)S[C@@H]2[C@H](/N=C/N3CCCCCC3)C(=O)N2[C@H]1C(=O)O [amdinocillin] | 
 | Fc1ccc(C(c2ccc(F)cc2)N2CCN(C/C=C/c3ccccc3)CC2)cc1 [flunarizine] | potent hERG channel blockers
undergo extensive paracellular transport | N[C@@H]1[C@H]2CN(c3nc4c(cc3F)c(=O)c(C(=O)O)cn4-c3ccc(F)cc3F)C[C@@H]12 [trovafloxacin] | 
 | O=c1[nH]c2ccccc2n1C1CCN(CCCC(c2ccc(F)cc2)c2ccc(F)cc2)CC1 [pimozide] | potent hERG channel blockers
